Results as given in ChEMBL document CHEMBL5518174 (Eur J Med Chem, 2024).
Active and inactive are the calls of the source. No cut-off for these calls is given here.

How the values were obtained:
[1] = Upregulation of acetylated H3 protein expression in human NCI-H1975 cells assessed as fold change at 0.05 uM incubated for 24 hrs by immunoblotting analysis (reference value: 1); assay type: functional
Histone deacetylase 4 = Histone deacetylase 4 (Homo sapiens, UniProt P56524); assay: Inhibition of recombinant human HDAC4 using acetylated luminogenic substrate incubated for 10 mins by ultra-glo recombinant firefly luciferase based luminescence assay
[2] = molecular target: T1, Protein deacetylase HDAC6 (Homo sapiens, UniProt Q9UBN7); assay: Inhibition of recombinant human HDAC6 using acetylated luminogenic substrate incubated for 10 mins by ultra-glo recombinant firefly luciferase based luminescence assay
T1 sequence (Q9UBN7 whole entry): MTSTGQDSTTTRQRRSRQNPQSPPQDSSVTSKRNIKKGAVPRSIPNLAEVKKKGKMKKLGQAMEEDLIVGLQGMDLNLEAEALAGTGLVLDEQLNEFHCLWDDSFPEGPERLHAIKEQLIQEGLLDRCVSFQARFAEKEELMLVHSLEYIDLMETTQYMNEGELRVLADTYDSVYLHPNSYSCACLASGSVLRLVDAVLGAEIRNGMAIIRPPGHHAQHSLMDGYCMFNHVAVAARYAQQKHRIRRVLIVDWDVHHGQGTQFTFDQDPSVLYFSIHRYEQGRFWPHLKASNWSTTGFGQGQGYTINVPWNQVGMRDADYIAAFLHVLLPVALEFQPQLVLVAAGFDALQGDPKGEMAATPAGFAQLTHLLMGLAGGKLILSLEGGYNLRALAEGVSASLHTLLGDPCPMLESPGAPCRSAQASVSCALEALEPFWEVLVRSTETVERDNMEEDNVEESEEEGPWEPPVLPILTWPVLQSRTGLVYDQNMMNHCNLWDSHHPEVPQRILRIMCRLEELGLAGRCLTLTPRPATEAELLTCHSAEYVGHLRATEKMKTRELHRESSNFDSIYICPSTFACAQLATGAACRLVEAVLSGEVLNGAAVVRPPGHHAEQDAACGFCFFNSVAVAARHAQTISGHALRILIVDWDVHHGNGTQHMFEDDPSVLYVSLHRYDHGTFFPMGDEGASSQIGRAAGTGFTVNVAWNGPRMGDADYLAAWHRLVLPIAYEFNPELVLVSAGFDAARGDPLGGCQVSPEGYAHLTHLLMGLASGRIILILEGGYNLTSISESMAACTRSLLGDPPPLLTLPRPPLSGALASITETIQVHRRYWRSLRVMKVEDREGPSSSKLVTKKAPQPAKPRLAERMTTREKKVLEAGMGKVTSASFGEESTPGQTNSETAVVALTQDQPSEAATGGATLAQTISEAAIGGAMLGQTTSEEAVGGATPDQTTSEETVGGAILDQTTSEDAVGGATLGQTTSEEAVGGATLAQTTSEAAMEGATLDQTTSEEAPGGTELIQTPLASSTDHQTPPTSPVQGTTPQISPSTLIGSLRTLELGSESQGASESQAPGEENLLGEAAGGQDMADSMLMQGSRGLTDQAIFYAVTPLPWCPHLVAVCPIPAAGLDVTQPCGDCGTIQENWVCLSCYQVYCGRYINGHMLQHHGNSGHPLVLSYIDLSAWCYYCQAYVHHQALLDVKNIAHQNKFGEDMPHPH

[3] = molecular target: T2, Polyamine deacetylase HDAC10 (Homo sapiens, UniProt Q969S8); assay: Inhibition of recombinant human HDAC10 using acetylated luminogenic substrate incubated for 10 mins by ultra-glo recombinant firefly luciferase based luminescence assay
T2 sequence (Q969S8 whole entry): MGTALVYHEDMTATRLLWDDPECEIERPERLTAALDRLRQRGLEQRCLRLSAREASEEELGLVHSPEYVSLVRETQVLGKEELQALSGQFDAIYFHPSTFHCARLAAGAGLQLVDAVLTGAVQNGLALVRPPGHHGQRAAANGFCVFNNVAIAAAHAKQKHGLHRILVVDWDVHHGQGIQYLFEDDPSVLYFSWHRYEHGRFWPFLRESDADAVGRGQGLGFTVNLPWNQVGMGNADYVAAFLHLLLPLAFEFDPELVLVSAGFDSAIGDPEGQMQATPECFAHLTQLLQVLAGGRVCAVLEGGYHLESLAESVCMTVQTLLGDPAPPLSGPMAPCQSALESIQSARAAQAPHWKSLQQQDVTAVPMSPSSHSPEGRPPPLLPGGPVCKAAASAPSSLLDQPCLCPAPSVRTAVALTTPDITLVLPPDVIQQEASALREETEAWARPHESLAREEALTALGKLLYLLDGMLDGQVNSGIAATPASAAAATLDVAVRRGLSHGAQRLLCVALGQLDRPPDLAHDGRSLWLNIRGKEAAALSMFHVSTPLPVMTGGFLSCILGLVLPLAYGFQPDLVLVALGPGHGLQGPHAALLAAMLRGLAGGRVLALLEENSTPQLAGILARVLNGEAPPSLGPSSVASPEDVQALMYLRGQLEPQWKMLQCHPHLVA

[4] = Downregulation of HDAC3 protein expression in human MDA-MB-231 cells assessed as fold change at 0.05 uM incubated for 24 hrs by immunoblotting analysis (reference value: 1); assay type: functional
[5] = Effect on HDAC5 protein expression in human NCI-H1975 cells assessed as fold change at 0.1 uM incubated for 24 hrs by immunoblotting analysis (reference value: 1); assay type: functional
[6] = Effect on HDAC5 protein expression in human MDA-MB-231 cells assessed as fold change at 0.05 uM incubated for 24 hrs by immunoblotting analysis (reference value: 1); assay type: functional
[7] = Downregulation of HDAC10 protein expression in human MDA-MB-231 cells assessed as fold change at 0.1 uM incubated for 24 hrs by immunoblotting analysis (reference value: 1); assay type: functional
[8] = Effect on HDAC11 protein expression in human NCI-H1975 cells assessed as fold change at 0.05 uM incubated for 24 hrs by immunoblotting analysis (reference value: 1); assay type: functional
MDA-MB-231 [9] = assay: Antitumor activity against human MDA-MB-231 cells xenografted in athymic nude BALB/c mouse assessed as reduction in tumor growth at 3 mg/kg, ip administered 5 times a week for 7 weeks by vernier caliper method; assay type: functional, organism-based
MDA-MB-231 [10] = assay: Antitumor activity against human MDA-MB-231 cells xenografted in athymic nude BALB/c mouse assessed as average tumor size at 3 mg/kg, ip administered 5 times a week for 7 weeks and measured on day 47 (reference value: 15.4 +/- 5.3 mm3); assay type: functional; settings: time 47 day

Chain of Histone deacetylase 4 (P56524 whole entry): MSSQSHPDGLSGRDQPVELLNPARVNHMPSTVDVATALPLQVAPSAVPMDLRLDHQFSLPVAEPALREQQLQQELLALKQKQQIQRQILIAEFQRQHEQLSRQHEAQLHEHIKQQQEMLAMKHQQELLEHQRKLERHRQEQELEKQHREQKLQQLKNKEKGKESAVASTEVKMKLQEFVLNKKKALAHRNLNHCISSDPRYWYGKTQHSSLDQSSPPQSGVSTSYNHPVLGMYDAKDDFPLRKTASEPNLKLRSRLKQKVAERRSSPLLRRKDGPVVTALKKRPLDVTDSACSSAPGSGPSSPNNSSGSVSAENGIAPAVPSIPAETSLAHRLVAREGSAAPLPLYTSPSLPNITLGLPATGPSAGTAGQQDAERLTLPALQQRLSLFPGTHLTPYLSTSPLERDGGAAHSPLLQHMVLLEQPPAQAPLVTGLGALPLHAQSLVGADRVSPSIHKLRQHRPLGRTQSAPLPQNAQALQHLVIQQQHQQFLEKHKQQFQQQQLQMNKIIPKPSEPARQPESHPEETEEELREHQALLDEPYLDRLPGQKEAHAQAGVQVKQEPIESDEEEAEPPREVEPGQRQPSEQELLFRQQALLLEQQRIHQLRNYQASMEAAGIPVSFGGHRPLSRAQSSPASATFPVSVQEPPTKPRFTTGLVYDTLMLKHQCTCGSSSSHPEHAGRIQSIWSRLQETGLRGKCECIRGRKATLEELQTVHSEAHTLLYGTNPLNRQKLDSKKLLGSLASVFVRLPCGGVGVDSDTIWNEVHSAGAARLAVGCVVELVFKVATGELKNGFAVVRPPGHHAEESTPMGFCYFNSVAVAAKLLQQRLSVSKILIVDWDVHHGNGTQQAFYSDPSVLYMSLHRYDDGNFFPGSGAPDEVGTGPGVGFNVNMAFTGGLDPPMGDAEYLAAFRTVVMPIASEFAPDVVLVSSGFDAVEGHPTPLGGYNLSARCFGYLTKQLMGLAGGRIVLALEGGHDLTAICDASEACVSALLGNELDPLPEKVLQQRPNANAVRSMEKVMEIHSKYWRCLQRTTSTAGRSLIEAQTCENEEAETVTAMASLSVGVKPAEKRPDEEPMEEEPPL

CCOc1ccc(-c2nc(C(=O)NCc3ccc(C(=O)NO)cc3)c3[nH]c(=O)n(-c4cccnc4OC)c3n2)cn1
fold change (FC) [1]: 1.77 | IC50 (Histone deacetylase 4): > 1000 nM | IC50 [2]: 10.8 nM | IC50 [3]: 18.9 nM | fold change (FC) [4]: 0.82 | fold change (FC) [5]: 1.53 | fold change (FC) [6]: 1.16 | fold change (FC) [7]: 0.88 | fold change (FC) [8]: 1.15 | Activity (MDA-MB-231 [9]): Active | Activity (MDA-MB-231 [10]): 1.7 mm3
